Assay results taken from US20140356383A1, “ADMINISTRATION OF AN ANTI-GCC ANTIBODY-DRUG CONJUGATE AND A DNA DAMAGING AGENT IN THE TREATMENT OF CANCER” (priority 2013, published 2014).

Tested on: HT29 (WT / vector) cells
Assay: Direct cytotoxicity assay (WST), HT29 wild-type / vector cells
Type: cell-based, human
Experimental: To measure each antibody's ability to bind, internalize and kill target expressing cells, cytotoxicity assays were performed. In this assay, cells were incubated with various concentrations of the unconjugated primary anti-GCC antibody and a fixed non-toxic concentration of DM1-conjugated anti-human Fc secondary antibody (indirect cytotoxicity) or with various concentrations of toxin conjugated anti-GCC mAb (direct cytotoxicity). Cell viability was measured by WST assay after 4 days incubation.
Auristatin (analog of dolastatin 10) and maytansine class toxins were evaluated as ADCs with anti-GCC mAb. These toxins are all inhibitors of microtubule polymerization, acting as anti-mitotics.
The 5F9-auristatin toxin conjugates were tested in direct cytotoxicity assays of a variety of cells which been transfected with GCC nucleic acid and selected for expression of GCC. […] As a negative control, antibody drug conjugates were also made with sc209 antibody, which is a human IgG1 monoclonal antibody raised against an unrelated target, with no reactivity to GCC.

In the case of “5F9 vcMMAE: 5F9 mAb conjugated to MMAE using a vc (Val-Cit) linker; average drug loading about 3.6”, the “LD 50” value (HT29, auristatin ADCs) is reported as 0.93 nM and the “LD 50” value (HT 29 WT, auristatin ADCs) is reported as 84 nM.
